Structures can show the parent of a compound that is named as a salt. Where two headings read alike, the source gives them in different places.
Test: Hydrolisis rate of prodrug in whole rat blood (Franz-type cell, phenytoin measured by HPLC)
Type: in vitro ADME
Details: for hydrolisis (rate, in words): blood hydrolisis, summary statement on Tables 1 and 2; for metabolised at 10 s: time 0.17 min; for metabolised at 20 s: time 0.33 min; for metabolised at 0.5 min: time 0.50 min; for metabolised at 0.025 h: time 1.5 min; for metabolised at 0.8 h: time 48.00 min; for metabolised at 15 s: time 0.25 min; for metabolised at 0.25 h: time 15.00 min; for metabolised at 1 h: time 60.00 min; for metabolised at 2.45 h: time 147.00 min; for metabolised at 3.15 h: time 189.00 min
Protocol: To study the hydrolisis of prodrugs in blood, Franz-type permeation cells of the company Crown Glass Co. Somerville, N.Y. have been used. The receiving compartment is used which allows for water recirculation using a glass packet in order to keep the system at 37 °C. This compartment is equipped with magnetic stirring.
For the experiment, male Wistar albino rats weighing 200-275 g, bred and selected at the stabularium of the School of Pharmacy of Barcelona, were used. The animals were fasted for 20 hours before starting the trials, but they were given water ad libitum throughout this period. In order to avoid coprophagy, the animals were placed in cages with a broad wire netting bottom.
After anesthesizing the rat, blood was drawn by cardiac puncture. A known amount of blood (10 ml) containing a prodrug concentration of 40 µg/ml was introduced through the lateral tubes of the receiving compartment of Franz cells. The system was kept at 37 °C and stirred magnetically, samples were taken (1 ml) and phenytoin was measured in each of them by HPLC.
The analytical methods were validated prior to estimating phenytoin levels in blood samples.
As in the previous case, three replicates of the tested product were used.

[1] = rat, whole blood, whole rat blood, 37 °C, prodrug 40 µg/ml, mean of replicates, read-out: % HYDROLISIS IN WHOLE BLOOD, m ± s.d.
[2] = rat, whole blood, whole rat blood, 37 °C, prodrug 40 µg/ml, replicate 1, read-out: % HYDROLISIS IN WHOLE BLOOD
[3] = rat, whole blood, whole rat blood, 37 °C, prodrug 40 µg/ml, replicate 2, read-out: % HYDROLISIS IN WHOLE BLOOD
[4] = rat, whole blood, whole rat blood, 37 °C, prodrug 40 µg/ml, replicate 3, read-out: % HYDROLISIS IN WHOLE BLOOD
[5] = rat, whole blood, whole rat blood, 37 °C, mean of replicates, read-out: % HYDROLISIS IN WHOLE BLOOD, m ± s.d.
[6] = rat, whole blood, whole rat blood, 37 °C, replicate 1, read-out: % HYDROLISIS IN WHOLE BLOOD
[7] = rat, whole blood, whole rat blood, 37 °C, replicate 2, read-out: % HYDROLISIS IN WHOLE BLOOD
[8] = rat, whole blood, whole rat blood, 37 °C, replicate 3, read-out: % HYDROLISIS IN WHOLE BLOOD

## CN1CCN(CC(=O)OCN2C(=O)NC(c3ccccc3)(c3ccccc3)C2=O)CC1 [IX, 5,5-diphenyl-3-[(4-methylpiperazinyl)-acetoxymethyl]hydantoin dihydrochloride]
  hydrolisis (rate, in words): virtually instantaneous
[1]
  metabolised at 10 s: 100 ± 7.96%
  metabolised at 20 s: 102 ± 20.8%
  metabolised at 0.5 min: 102 ± 13.2%
  metabolised at 0.025 h: 104 ± 7.14%
  metabolised at 5 min: 109%
  metabolised at 16 min: 115 ± 5.79%
  metabolised at 0.8 h: 100 ± 3.91%
[2]
  metabolised at 10 s: 99%
  metabolised at 20 s: 85.6%
  metabolised at 0.5 min: 92.7%
  metabolised at 0.025 h: 95.8%
  metabolised at 5 min: 105%
  metabolised at 0.8 h: 97.2%
[3]
  metabolised at 10 s: 109%
  metabolised at 20 s: 95.8%
  metabolised at 0.5 min: 96.5%
  metabolised at 0.025 h: 108%
  metabolised at 5 min: 117%
  metabolised at 16 min: 119%
  metabolised at 0.8 h: 99.4%
[4]
  metabolised at 10 s: 93.1%
  metabolised at 20 s: 126%
  metabolised at 0.5 min: 117%
  metabolised at 0.025 h: 109%
  metabolised at 5 min: 105%
  metabolised at 16 min: 110%
  metabolised at 0.8 h: 105%
rat, whole blood, whole rat blood, 37 °C, prodrug 40 µg/ml, time 115.00 min, replicate 2
  metabolised at 115 min: 99.7%

## O=C1NC(c2ccccc2)(c2ccccc2)C(=O)N1COP(=O)(O)O [XI, disodium salt of 5,5-diphenyl-3-(hydroxymethyl]hydantoin phosphoric ester]
  hydrolisis (rate, in words): much more slower
[1]
  metabolised at 0.5 min: 8.47 ± 2.79%
[2]
  metabolised at 0.5 min: 6.37%
[3]
  metabolised at 0.5 min: 7.41%
[4]
  metabolised at 0.5 min: 11.7%
[5]
  metabolised at 15 s: 4.72 ± 1.84%
  metabolised at 2 min: 15.1 ± 7.72%
  metabolised at 7 min: 33.2 ± 12.3%
  metabolised at 0.25 h: 59.6 ± 29.8%
  metabolised at 1 h: 77.7 ± 4.6%
  metabolised at 2.45 h: 81.31 ± 0.47%
  metabolised at 3.15 h: 88.5 ± 13.1%
[6]
  metabolised at 15 s: 3.42%
  metabolised at 2 min: 10.5%
  metabolised at 7 min: 21.4%
  metabolised at 0.25 h: 38.9%
  metabolised at 1 h: 74.5%
  metabolised at 2.45 h: 81%
  metabolised at 3.15 h: 79.3%
[7]
  metabolised at 15 s: 6.03%
  metabolised at 2 min: 10.8%
  metabolised at 7 min: 32%
  metabolised at 0.25 h: 46.1%
  metabolised at 1 h: 81%
  metabolised at 2.45 h: 81.7%
  metabolised at 3.15 h: 97.7%
[8]
  metabolised at 2 min: 24%
  metabolised at 7 min: 46%
  metabolised at 0.25 h: 93.8%
